Measured values from US20050208496A1, “Methods of testing for bronchial asthma or chronic obstructive pulmonary disease” (Genox Research, Inc., priority 2002, published 2005).
Like-named read-outs stand apart in the source and are kept apart here.

System: respiratory epithelial cells
[1] = HG-U95E, lot 1, Day 3, AI (head as in Table 18)
[2] = HG-U95E, lot 1, Day 7, AI (no head printed, inferred)
[3] = HG-U95E, lot 2, Day 3, AI (no head printed, inferred)

IL-13: human IL-13 (Peprotech, Inc.) added to the medium at 50 ng/mL to stimulate respiratory epithelial cells
CRYM (38285_at) expression change upon IL-13 stimulation (HG-U95A, lot 2, Day 7, AI): −3.5 | CSPG2 (38112_g_at) expression change upon IL-13 stimulation (HG-U95A, lot 2, Day 7, AI): −2.5 | DHCR24 (36658_at) expression change upon IL-13 stimulation (HG-U95A, lot 2, Day 7, AI): −4.3 | DSG3 (33693_at) expression change upon IL-13 stimulation (HG-U95A, lot 2, Day 7, AI): −2.2 | E48 (36284_at) expression change upon IL-13 stimulation (HG-U95A, lot 2, Day 7, AI): −5.6 | EPHX1 (38790_at) expression change upon IL-13 stimulation (HG-U95A, lot 2, Day 7, AI): −5.1 | FACL2 (40082_at) expression change upon IL-13 stimulation (HG-U95A, lot 2, Day 7, AI): −2 | FMO3 (40665_at) expression change upon IL-13 stimulation (HG-U95A, lot 2, Day 7, AI): −4.3 | GLUL (40522_at) expression change upon IL-13 stimulation (HG-U95A, lot 2, Day 7, AI): −4.4 | GPX3 (770_at) expression change upon IL-13 stimulation (HG-U95A, lot 2, Day 7, AI): −2.8 | GSTA4 (40508_at) expression change upon IL-13 stimulation (HG-U95A, lot 2, Day 7, AI): −5.4 | HGNC, keratinocyte transglutaminase gene (35947_at) expression change upon IL-13 stimulation (HG-U95A, lot 2, Day 7, AI): −3.2 | KIAA0878 (32215_1_at) expression change upon IL-13 stimulation (HG-U95A, lot 2, Day 7, AI): −2.7 | KIAA1055 (39400_at) expression change upon IL-13 stimulation (HG-U95A, lot 2, Day 7, AI): −3 | LCE (40943_at) expression change upon IL-13 stimulation (HG-U95A, lot 2, Day 7, AI): −3.7 | LGALS1 (33412_at) expression change upon IL-13 stimulation (HG-U95A, lot 2, Day 7, AI): −6.2 | SCYD1 (823_at) expression change upon IL-13 stimulation (HG-U95A, lot 2, Day 7, AI): −24.6 | SDC1 (38127_at) expression change upon IL-13 stimulation (HG-U95A, lot 2, Day 7, AI): −2.9 | TGFBI (1385_at) expression change upon IL-13 stimulation (HG-U95A, lot 2, Day 7, AI): −4.9 | TNFAIP2 (38631_at) expression change upon IL-13 stimulation (HG-U95A, lot 2, Day 7, AI): −3.7 | AA199856 (72960_s_at) expression change upon IL-13 stimulation (HG-U95E, lot 1, Day 3, AI): 4.3 | AI859144, KIAA1127 (77546_at) expression change upon IL-13 stimulation (HG-U95E, lot 1, Day 3, AI): 4.2 | BAL (69619_at) expression change upon IL-13 stimulation (HG-U95E, lot 1, Day 3, AI): 3.5 | EHF (8S090_at) expression change upon IL-13 stimulation (HG-U95E, lot 1, Day 3, AI): 2.3 | EPSTI1 (90421_at) expression change upon IL-13 stimulation (HG-U95E, lot 1, Day 3, AI): 7.2 | FLJ20989 (91420_at) expression change upon IL-13 stimulation (HG-U95E, lot 1, Day 3, AI): 14.8 | FLJ22833 (67329_at) expression change upon IL-13 stimulation (HG-U95E, lot 1, Day 3, AI): 3.1 | GCNT3 (77751_at) expression change upon IL-13 stimulation (HG-U95E, lot 1, Day 3, AI): 4.9 | MFHAS1 (87816_g_at) expression change upon IL-13 stimulation (HG-U95E, lot 1, Day 3, AI): 3 | RPL4 (80675_at) expression change upon IL-13 stimulation (HG-U95E, lot 1, Day 3, AI): 2.2 | SCYA26 (90189_at) expression change upon IL-13 stimulation (HG-U95E, lot 1, Day 3, AI): 26.3 | H70665 (67357_at) expression change upon IL-13 stimulation [1]: 2.6 | SLC21A12 (87860_s_at) expression change upon IL-13 stimulation [1]: 2.7 | TBLR1 (87125_at) expression change upon IL-13 stimulation [1]: 2.8 | AA199856 (72960_s_at) expression change upon IL-13 stimulation (HG-U95E, lot 1, Day 3, IMM): 5.8 | AI859144, KIAA1127 (77546_at) expression change upon IL-13 stimulation (HG-U95E, lot 1, Day 3, IMM): 6.1 | AW024819 (72867_at) expression change upon IL-13 stimulation (HG-U95E, lot 1, Day 3, IMM): 4.2 | BAL (69619_at) expression change upon IL-13 stimulation (HG-U95E, lot 1, Day 3, IMM): 3.1 | EPSTI1 (90421_at) expression change upon IL-13 stimulation (HG-U95E, lot 1, Day 3, IMM): 9.9 | FLJ20989 (91420_at) expression change upon IL-13 stimulation (HG-U95E, lot 1, Day 3, IMM): 13.5 | GCNT3 (77751_at) expression change upon IL-13 stimulation (HG-U95E, lot 1, Day 3, IMM): 10.2 | RIG-1 (77749_at) expression change upon IL-13 stimulation (HG-U95E, lot 1, Day 3, IMM): 3.9 | SCYA26 (90189_at) expression change upon IL-13 stimulation (HG-U95E, lot 1, Day 3, IMM): 18.1 | EHF (85092_g_at) expression change upon IL-13 stimulation (HG-U95E, lot 1, Day 3, IMM (head as in Table 18)): 2.3 | AA199856 (72960_s_at) expression change upon IL-13 stimulation (HG-U95E, lot 1, Day 7, AI): 3.9 | AA806114 (80826_at) expression change upon IL-13 stimulation (HG-U95E, lot 1, Day 7, AI): 5.3 | AI803648 (89255_at) expression change upon IL-13 stimulation (HG-U95E, lot 1, Day 7, AI): 3.5 | AI859144, KIAA1127 (77546_at) expression change upon IL-13 stimulation (HG-U95E, lot 1, Day 7, AI): 2.6 | AI984061 (89834_at) expression change upon IL-13 stimulation (HG-U95E, lot 1, Day 7, AI): 2.7 | AW024819 (72867_at) expression change upon IL-13 stimulation (HG-U95E, lot 1, Day 7, AI): 2.6 | BCAT1 (72962_at) expression change upon IL-13 stimulation (HG-U95E, lot 1, Day 7, AI): 2.7 | CLDN1 (77660_at) expression change upon IL-13 stimulation (HG-U95E, lot 1, Day 7, AI): 2.6 | EHF (85092_g_at) expression change upon IL-13 stimulation (HG-U95E, lot 1, Day 7, AI): 2.1 | EPPK1 (86507_at) expression change upon IL-13 stimulation (HG-U95E, lot 1, Day 7, AI): 2.6 | FLJ20281 (83376_at) expression change upon IL-13 stimulation (HG-U95E, lot 1, Day 7, AI): 2.1 | FLJ20989 (91420_at) expression change upon IL-13 stimulation (HG-U95E, lot 1, Day 7, AI): 3.4 | FLJ21415 (89902_at) expression change upon IL-13 stimulation (HG-U95E, lot 1, Day 7, AI): 3.4 | FLJ22833 (67329_at) expression change upon IL-13 stimulation (HG-U95E, lot 1, Day 7, AI): 3.6 | GCNT3 (77751_at) expression change upon IL-13 stimulation (HG-U95E, lot 1, Day 7, AI): 2.5 | KIAA1685 (83541_at) expression change upon IL-13 stimulation (HG-U95E, lot 1, Day 7, AI): 2.6 | MASL1 (89651_at) expression change upon IL-13 stimulation (HG-U95E, lot 1, Day 7, AI): 4.3 | MFHAS1 (87816_g_at) expression change upon IL-13 stimulation (HG-U95E, lot 1, Day 7, AI): 3.4 | RIG-1 (77749_at) expression change upon IL-13 stimulation (HG-U95E, lot 1, Day 7, AI): 3.4 | SCYA26 (90189_at) expression change upon IL-13 stimulation (HG-U95E, lot 1, Day 7, AI): 30.4 | vipirin (84893_at) expression change upon IL-13 stimulation (HG-U95E, lot 1, Day 7, AI): 2.7 | NIFK (89320_at) expression change upon IL-13 stimulation [2]: 2.9 | SLC1A5 (34759_at) expression change upon IL-13 stimulation [2]: 2.5 | SLC17A5 (88617_at) expression change upon IL-13 stimulation [2]: 2.7 | SLC21A12 (87860_s_at) expression change upon IL-13 stimulation [2]: 2.7 | rab11-FIP1 (89338_at) expression change upon IL-13 stimulation [2]: 4.4 | AA199856 (72960_s_at) expression change upon IL-13 stimulation (HG-U95E, lot 1, Day 7, IMM): 3.8 | AA806114 (80826_at) expression change upon IL-13 stimulation (HG-U95E, lot 1, Day 7, IMM): 5.3 | AI803648 (89255_at) expression change upon IL-13 stimulation (HG-U95E, lot 1, Day 7, IMM): 7 | BAL (69619_at) expression change upon IL-13 stimulation (HG-U95E, lot 1, Day 7, IMM): 2.2 | BCAT1 (72962_at) expression change upon IL-13 stimulation (HG-U95E, lot 1, Day 7, IMM): 3.4 | EPPK1 (86507_at) expression change upon IL-13 stimulation (HG-U95E, lot 1, Day 7, IMM): 3.6 | EPSTI1 (90421_at) expression change upon IL-13 stimulation (HG-U95E, lot 1, Day 7, IMM): 3.4 | FLJ22833 (67329_at) expression change upon IL-13 stimulation (HG-U95E, lot 1, Day 7, IMM): 3.7 | GCNT3 (77751_at) expression change upon IL-13 stimulation (HG-U95E, lot 1, Day 7, IMM): 3.5 | MFHAS1 (87816_g_at) expression change upon IL-13 stimulation (HG-U95E, lot 1, Day 7, IMM): 3.1 | RIG-1 (77749_at) expression change upon IL-13 stimulation (HG-U95E, lot 1, Day 7, IMM): 5.1 | SCYA26 (90189_at) expression change upon IL-13 stimulation (HG-U95E, lot 1, Day 7, IMM): 35.1 | vipirin (84893_at) expression change upon IL-13 stimulation (HG-U95E, lot 1, Day 7, IMM): 6.6 | AA199856 (72960_s_at) expression change upon IL-13 stimulation (HG-U95E, lot 2, Day 3, AI): 18.8 | AA779704 (68562_at) expression change upon IL-13 stimulation (HG-U95E, lot 2, Day 3, AI): 2.8 | AA806114 (80826_at) expression change upon IL-13 stimulation (HG-U95E, lot 2, Day 3, AI): 7.2 | AI859144, KIAA1127 (77546_at) expression change upon IL-13 stimulation (HG-U95E, lot 2, Day 3, AI): 5.5 | BAL (69619_at) expression change upon IL-13 stimulation (HG-U95E, lot 2, Day 3, AI): 3.1 | BCAT1 (72962_at) expression change upon IL-13 stimulation (HG-U95E, lot 2, Day 3, AI): 10.5 | EHF (8S090_at) expression change upon IL-13 stimulation (HG-U95E, lot 2, Day 3, AI): 3.3 | EHF (85092_g_at) expression change upon IL-13 stimulation (HG-U95E, lot 2, Day 3, AI): 3.3 | EPSTI1 (90421_at) expression change upon IL-13 stimulation (HG-U95E, lot 2, Day 3, AI): 9.4 | FLJ22833 (67329_at) expression change upon IL-13 stimulation (HG-U95E, lot 2, Day 3, AI): 6.1 | MASL1 (89651_at) expression change upon IL-13 stimulation (HG-U95E, lot 2, Day 3, AI): 3.2 | MFHAS1 (87816_g_at) expression change upon IL-13 stimulation (HG-U95E, lot 2, Day 3, AI): 3.5 | OAS2 (90662_at) expression change upon IL-13 stimulation (HG-U95E, lot 2, Day 3, AI): 4.1 | RIG-1 (77749_at) expression change upon IL-13 stimulation (HG-U95E, lot 2, Day 3, AI): 6.4 | RPL4 (80675_at) expression change upon IL-13 stimulation (HG-U95E, lot 2, Day 3, AI): 2.3 | SCYA26 (90189_at) expression change upon IL-13 stimulation (HG-U95E, lot 2, Day 3, AI): 16.7 | vipirin (84893_at) expression change upon IL-13 stimulation (HG-U95E, lot 2, Day 3, AI): 15.4 | H70665 (67357_at) expression change upon IL-13 stimulation [3]: 2.1 | NIFK (89320_at) expression change upon IL-13 stimulation [3]: 2.1 | TBLR1 (87125_at) expression change upon IL-13 stimulation [3]: 4.4 | NIFK (89320_at) expression change upon IL-13 stimulation (HG-U95E, lot 2, Day 7): 3.4 | SLC1A5 (34759_at) expression change upon IL-13 stimulation (HG-U95E, lot 2, Day 7): 2.9 | SLC17A5 (88617_at) expression change upon IL-13 stimulation (HG-U95E, lot 2, Day 7): 2.3
